Tests used:
[1] = test system: male Swiss albino mice (CD-1); test: Maximal electroshock seizure test (MES); assay type: in vivo
How it was run: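 Male CD-1 mice (18–26 g) received compound i.p. in 1% aqueous Tween 30 min before a 0.2 s, 500 V, 25 mA auricular electroshock.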

[2] = target: T1, CYP3A4 (Homo sapiens, UniProt P08684); test: CYP3A4 P450-Glo luminescence test; assay type: in vitro ADME
T1 construct: purchased Promega (Madison, WI, USA)
Protocol: (§1) Effect of compound 6 on cytochrome P-450 3A4 and 2D6 activity. The research was conducted using commercial luminescence tests CYP3A4 P450-Glo™ and CYP2D6 P450-Glo™ from Promega (Madison, WI, USA) based on the methodology described in the literature (Socała, K.; Mogilski, S.; Pieróg, M.; Nieoczym, D.; Abram, M.; Szulczyk, B.; Lubelska, A.; Latacz, G.; Doboszewska, U.; Wlaź, P.; Kamiński, K. ACS Chem. Neurosci. 2018, doi: 10.1021/acschemneuro.8b00476; Latacz, G.; Lubelska, A.; Jastrzȩbska-Wiȩek, M.; Partyka, A.; Sobato, A.; Olejarz, A.; Kucwaj-Brysz, K.; Satata, G.; Bojarski, A. J.; Wesołowska, A.; Kieć-Kononowicz, K.; Handzlik, J. Chem. Biol. Drug. Des. 2017, 90, 1295-1306). The CYP isoforms selected for study are responsible for the metabolism of approximately 40-50% of the drugs available on the market, and their stimulation or inhibition determines the majority of metabolic drug interactions. […] In summary, the results obtained indicate a low probability of potential metabolic interactions caused by 6.

[3] = target: T2, CYP2D6 (Homo sapiens, UniProt P10635); test: CYP2D6 P450-Glo luminescence test; assay type: in vitro ADME; settings: 10 μM
T2 construct: purchased Promega (Madison, WI, USA)
T2 sequence (P10635 whole entry): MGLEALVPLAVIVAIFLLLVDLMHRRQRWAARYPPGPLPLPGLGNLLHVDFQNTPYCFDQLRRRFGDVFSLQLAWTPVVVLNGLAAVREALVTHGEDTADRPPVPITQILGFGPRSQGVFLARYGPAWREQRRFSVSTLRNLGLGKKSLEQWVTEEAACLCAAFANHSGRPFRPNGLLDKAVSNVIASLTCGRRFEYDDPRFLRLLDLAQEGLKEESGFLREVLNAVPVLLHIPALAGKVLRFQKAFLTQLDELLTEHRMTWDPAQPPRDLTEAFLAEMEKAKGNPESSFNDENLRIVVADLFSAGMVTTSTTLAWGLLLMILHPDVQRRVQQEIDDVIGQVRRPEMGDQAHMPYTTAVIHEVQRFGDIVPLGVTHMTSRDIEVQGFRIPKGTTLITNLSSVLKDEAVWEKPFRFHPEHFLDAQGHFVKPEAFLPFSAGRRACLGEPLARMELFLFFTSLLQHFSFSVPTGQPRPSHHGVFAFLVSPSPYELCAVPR
Protocol: as §1

[4] = test system: HepG2 cells; test: In vitro hepatotoxicity, MTS cell viability assay; assay type: cell-based; settings: 100 μM, 72 h incubation, p<0.05
Protocol: In vitro hepatotoxicity assessment. The studies were conducted using the hepatoma HepG2 liver cancer cell line, which is used to assess the hepatotoxicity of the substance in vitro. A classic MTS colorimetric assay from Promega (Madison, WI, USA) was used to investigate the effect of 6 on HepG2 cell viability and proliferation. The compound was tested at four concentrations in the range (0.1-100 μM). Doxorubicin at a concentration of 1 μM was used as a reference cytostatic. In addition, the reference mitochondrial toxin carbonyl cyanide m-chlorophenylhydrazone (CCCP) at a concentration of 10 μM was also used (FIG. 10). […] In addition, cell viability was reduced to just 84% of the control, indicating a trace toxic effect of this compound on HepG2 cell lines. Due to the particular exposure of liver cells to the potential toxic effects of xenobiotics, an additional test was carried out with the HepG2 line in the form of luminescent measurement of ATP levels in cells, after a short 3-hour exposure to compound 6, in concentrations in the range of 1-100 μM. […]
In vitro hepatotoxicity assessment—methodology. […] Plates were again incubated for 2-3 hours, followed by absorbance measurement at 490 nm with an EnSpire PerkinElmer (Waltham, MA, USA) reader. Statistical significance was calculated by one-way ANOVA variance analysis and the Bonferroni method. […]

T1 sequence (P08684 whole entry): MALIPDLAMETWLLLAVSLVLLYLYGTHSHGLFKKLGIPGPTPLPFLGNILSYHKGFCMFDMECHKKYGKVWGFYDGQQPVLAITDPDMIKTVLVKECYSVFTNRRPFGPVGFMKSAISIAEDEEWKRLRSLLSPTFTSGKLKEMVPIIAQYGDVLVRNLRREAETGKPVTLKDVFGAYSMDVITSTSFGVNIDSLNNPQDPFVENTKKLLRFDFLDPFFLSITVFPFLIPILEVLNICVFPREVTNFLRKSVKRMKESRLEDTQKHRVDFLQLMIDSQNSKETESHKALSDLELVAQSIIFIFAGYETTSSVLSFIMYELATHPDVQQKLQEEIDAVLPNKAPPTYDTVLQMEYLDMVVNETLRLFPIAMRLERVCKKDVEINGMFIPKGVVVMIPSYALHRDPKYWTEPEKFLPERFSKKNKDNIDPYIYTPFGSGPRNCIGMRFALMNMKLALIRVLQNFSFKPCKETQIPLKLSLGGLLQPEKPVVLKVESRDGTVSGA

`O=C(C(c1ccccc1)N1C(=O)CCC1=O)N1CCN(c2cccc(C(F)(F)F)c2)CC1` (racemic) [Compound 6, 1-(2-Oxo-1-phenyl-2-(4-(3-(trifluoromethyl)phenyl)piperazin-1-yl)ethyl)pyrrolidine-2,5-dione] was tested, and the ED50 ([1]; Mus musculus, ip, 0.5 h, mice) was 23.7 mg/kg, the “mice protected in the MES test” value ([1]; screening, 100 mg/kg, time point 0.5 h) was 100% and the “effect on CYP3A4 activity” value [2] was “no effect”. The “effect on CYP2D6 activity” value [3] was “very weak stimulating effect” and the “HepG2 cell viability, % of the control” value [4] was 84%.
